Laboratory results taken from patent US8349804B2, “Bone graft and scaffolding materials immobilized with type I collagen binding peptides” (Seoul National University Industry Foundation, priority 2006, dated 2013).

Columns and labels:
[1] = tested on: Human-osteocarcoma cells (KCLB No. 21543); experiment: Test of cell adhesion on peptide-immobilized bone graft material; type: cell-based; details: phalloidin staining, confocal laser scanning microscope
Method: […] The bone graft materials with the cultured human-osteocarcoma cell were fixed with 2% glutaraldehyde solution. The fixed bone graft materials were treated with 1% triton X-100 and then added with a fluorescent-labeled phalloidin solution, thus staining the attached cytoplasm.

[2] = tested on: type I collagen; experiment: Affinity of peptide to type I collagen by Biacore X; type: binding; details: type I collagen bound to CM5 chip, peptide dissolved to be 4 μmol, ranking among SEQ ID NO: 1-3
Text: The synthesized peptide's affinity to type I collagen was examined using Biacore X (Biacore Co., Sweden). After the type I collagen was bound to CM5 chip, the amount of peptides binding with collagen was quantitated while flowing the prepared peptide dissolved to be 4 μmol into micro-channels of Biacore X (FIG. 1).

[3] = tested on: ERK; experiment: Western blot of phosphorylated ERK (pERK); type: cell-based, human; details: C2C12 cells treated with peptides for 30 min; compared with non-treated cells (NT)
Method: In order to examine the expression of differentiation marker protein in osteoblasts cultured on the surface of the bone graft material on which peptides added with cysteine at each N-terminal end of amino acid sequences of SEQ ID NOs: 1, 2 and 3, prepared in example 2 according to the present invention were immobilized, the peptides were exposed to human mesenchymally derived stem cells (C2C12) for 30 min, and collected to measure the amount of ERK protein, a marker proteins involved in intracellular signal transfer, by Western blot.
The human mesenchymally derived stem cells were transplanted to 60 mm of petridish, treated with peptides for 30 min. Whole intracellular protein was extracted and quantitated by Bradford method. 40[…] of protein was electrophoresed on acrylamide gel and transferred to nitrocellulose membrane, and ERK, intracellular signal transmission protein within cell was reacted with the antibody of phosphorylated ERK (pERK), followed by reacting with the second antibody labeled with a marker. The membrane was developed to observe the protein bands and measure densities thereof (FIG. 4).

[4] = Test of calcification (calcein staining, confocal microscopy); type: cell-based, human; details: cultured 14 days in medium for forming hard tissue; compared with group without peptides
Method: The bone graft materials prepared in Examples 2 was added to a medium for forming a hard tissue containing calcein (fluorescent marker of calcium), and human mesenchymally derived stem cells (C2Cl2: ATCC CRL-1772) were cultured for 14 days. The cultured osteoblasts werefixed with 2% glutaraldehyde solution and treated with 1% triton X-100 and then added with a fluorescent-labeled phalloidin solution, thus staining the fixed cytoplasm.

type I collagen, sequence (P02452 162-1218 limits assumed): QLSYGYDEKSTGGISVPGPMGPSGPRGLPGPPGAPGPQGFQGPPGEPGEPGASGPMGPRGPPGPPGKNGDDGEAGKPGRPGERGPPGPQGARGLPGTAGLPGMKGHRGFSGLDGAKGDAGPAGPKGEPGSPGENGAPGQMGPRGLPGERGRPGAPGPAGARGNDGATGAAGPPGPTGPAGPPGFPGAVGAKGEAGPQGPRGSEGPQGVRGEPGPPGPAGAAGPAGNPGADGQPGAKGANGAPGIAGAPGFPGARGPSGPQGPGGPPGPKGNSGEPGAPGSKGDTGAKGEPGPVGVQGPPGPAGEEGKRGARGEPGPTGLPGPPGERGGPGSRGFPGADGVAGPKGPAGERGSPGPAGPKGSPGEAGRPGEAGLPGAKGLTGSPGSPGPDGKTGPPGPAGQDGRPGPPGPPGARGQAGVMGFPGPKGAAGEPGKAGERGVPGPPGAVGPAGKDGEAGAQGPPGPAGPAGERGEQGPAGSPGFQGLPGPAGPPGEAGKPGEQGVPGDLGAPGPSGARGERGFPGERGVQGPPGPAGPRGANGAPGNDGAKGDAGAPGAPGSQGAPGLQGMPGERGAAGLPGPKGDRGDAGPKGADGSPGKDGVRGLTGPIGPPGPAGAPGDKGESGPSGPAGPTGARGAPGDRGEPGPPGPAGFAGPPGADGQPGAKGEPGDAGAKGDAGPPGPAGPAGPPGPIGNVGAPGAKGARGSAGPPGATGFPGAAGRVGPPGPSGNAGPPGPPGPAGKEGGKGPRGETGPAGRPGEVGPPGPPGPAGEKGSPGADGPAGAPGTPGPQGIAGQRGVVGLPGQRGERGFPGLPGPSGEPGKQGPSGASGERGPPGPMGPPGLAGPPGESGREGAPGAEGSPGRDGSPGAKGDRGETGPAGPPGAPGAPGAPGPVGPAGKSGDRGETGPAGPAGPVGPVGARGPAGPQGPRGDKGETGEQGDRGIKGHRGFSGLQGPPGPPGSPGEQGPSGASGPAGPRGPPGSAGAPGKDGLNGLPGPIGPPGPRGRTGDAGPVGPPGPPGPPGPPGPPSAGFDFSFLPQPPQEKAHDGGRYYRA
type I collagen, sequence (P08123 80-1119 limits assumed, further chain): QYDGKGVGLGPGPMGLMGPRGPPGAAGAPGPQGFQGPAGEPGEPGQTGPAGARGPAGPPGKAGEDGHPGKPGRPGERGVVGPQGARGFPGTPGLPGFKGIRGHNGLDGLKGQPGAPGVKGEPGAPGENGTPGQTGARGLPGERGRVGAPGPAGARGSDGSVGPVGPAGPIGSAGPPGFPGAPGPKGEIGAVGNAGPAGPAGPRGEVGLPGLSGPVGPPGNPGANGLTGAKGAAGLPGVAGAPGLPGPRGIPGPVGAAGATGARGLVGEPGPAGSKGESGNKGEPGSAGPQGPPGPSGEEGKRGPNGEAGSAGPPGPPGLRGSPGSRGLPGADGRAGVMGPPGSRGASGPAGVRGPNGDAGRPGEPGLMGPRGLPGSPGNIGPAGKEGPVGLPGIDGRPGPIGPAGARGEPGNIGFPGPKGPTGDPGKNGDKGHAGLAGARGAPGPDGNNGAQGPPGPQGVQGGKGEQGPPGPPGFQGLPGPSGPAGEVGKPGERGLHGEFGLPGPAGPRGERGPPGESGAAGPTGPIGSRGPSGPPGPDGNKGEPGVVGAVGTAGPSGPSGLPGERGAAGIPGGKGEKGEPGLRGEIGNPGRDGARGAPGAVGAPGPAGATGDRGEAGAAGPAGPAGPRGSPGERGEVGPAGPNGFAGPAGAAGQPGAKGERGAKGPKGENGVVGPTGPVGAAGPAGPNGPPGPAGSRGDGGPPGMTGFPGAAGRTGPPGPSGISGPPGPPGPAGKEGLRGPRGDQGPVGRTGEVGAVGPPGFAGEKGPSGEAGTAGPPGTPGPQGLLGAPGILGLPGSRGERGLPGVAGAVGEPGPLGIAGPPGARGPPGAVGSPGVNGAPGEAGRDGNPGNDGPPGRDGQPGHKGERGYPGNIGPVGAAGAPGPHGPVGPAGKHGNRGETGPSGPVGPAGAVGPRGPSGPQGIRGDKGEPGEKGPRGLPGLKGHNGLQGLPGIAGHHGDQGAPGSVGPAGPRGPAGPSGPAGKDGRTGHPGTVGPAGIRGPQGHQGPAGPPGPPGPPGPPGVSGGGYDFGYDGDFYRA

affinity to type I collagen (amount of peptide binding with collagen) [2]	Substance	cell adhesion pattern on coated surface [1]	expression of phosphorylated ERK (pERK) [3]	calcium adhesion (calcein fluorescence), calcification of cells [4]
highest affinity	YRLKRSKSKMFHVSNAQYPGA (listed as Oryctolagus cuniculus) [SEQ ID NO: 3]	stable adhesion of the cells	significantly increased	much more fluorescence
	Bovine serum albumin [BSA, reference compound]	spherical and unstable adhesion aspect of the cells		
lowest affinity	KMFHVSNAQYPGA (listed as Oryctolagus cuniculus) [SEQ ID NO: 2]	stable adhesion of the cells	significantly increased	much more fluorescence
	YRLKRSKS (listed as Oryctolagus cuniculus) [SEQ ID NO: 1]	stable adhesion of the cells	significantly increased	much more fluorescence
